# From the METLIN SMRT retention time set (Domingo-Almenara et al. 2019)
# Assay: gradient 5% acetonitrile 3 min, to 50% in 2 min, to 85% in 15 min, held 3 min, 100 µL/min
# Conditions: column: Zorbax Extend-C18 2.1 x 50 mm; eluents: water / acetonitrile, 0.1% formic acid
# Procedure, shortened: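 The mobile phases were water and acetonitrile, each with 0.1% formic acid, pumped at 100 μL/min through a Zorbax Extend-C18 column (2.1 × 50 mm, 1.8 μm). Pure standards were injected as mixtures of ~100 molecules and detected by a quadrupole time-of-flight mass spectrometer in positive and negative ionization mode. Retention time came from computationally picked adduct peaks, each inspected by hand.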
row,RP-LC retention time [s],Structure (SMILES)
1,988,O=C(Cc1ccc(F)cc1)Nc1nc(-c2ccccc2)cs1
2,644,CCNC(=O)C1CCCN(c2nc3ncn(CC(=O)Nc4ccccc4)c(=O)c3s2)C1 (centres undefined)
3,884,O=C(NCc1ccc2c(c1)CCCN2C(=O)C1CCC1)c1cc(F)ccc1Cl
4,1030,COc1ccc(Cl)cc1-c1nc(C2CC(=O)N(c3ccc(F)cc3)C2)no1 (centres undefined)
5,967,O=C(Cn1cnc2c(-c3ccc(F)cc3)csc2c1=O)Nc1cc(F)ccc1F
6,875,CSc1ccccc1C(=O)NCC1(c2ccc(F)cc2)CC1
7,776,CCOc1ccc(Nc2cc(C(=O)N3CCCC(C)C3)nc3ccc(C)cc23)cc1 (centres undefined)
8,962,COc1ccccc1-c1nc(C2CCN(C(=O)C3COc4ccccc4O3)CC2)no1 (centres undefined)
9,881,COc1ccc(NC(=O)Nc2cccc(-c3nccnc3N3CCCC3)c2)c(OC)c1
10,850,CC(=O)Nc1ccc(C(=O)NC(C(=O)N2CCCc3ccccc32)c2ccccc2)cc1 (centres undefined)
11,681,COc1ccc(-c2cc3nn(CC(=O)Nc4cccc(OC)c4)c(=O)n3c(C)n2)cc1
12,950,CC1CCCCC1Nc1nc(-c2ccc([N+](=O)[O-])cc2)nc2ccccc12 (centres undefined)
13,676,CC(C)OC(=O)c1ncoc1-c1ccccc1C(=O)NCC1CCCO1 (centres undefined)
14,912,O=C1N(C2CCN(S(=O)(=O)c3cccnc3)CC2)C(c2ccccc2)C12CCCC2 (centres undefined)
15,813,O=C(NC1CC1)[C@@H]1C[C@H](Oc2ccccc2)CN1C(=O)COc1ccc(F)cc1
16,811,CC(C)NC(=O)c1ccc(OCC2CCN(C(=O)c3ccc(C#N)cc3)CC2)cc1

row,RP-LC retention time [s],Structure (SMILES)
1,857,O=C([C@@H]1C[C@H](F)CN1C(=O)Nc1ccc(C(F)(F)F)cc1)N1CCc2ccccc2C1
2,857,Cc1cccc(Cn2cc(C(=O)O)c3ccccc3c2=O)c1
3,1040,COc1ccccc1-c1noc(-c2nnn3c2COC(c2ccc(F)cc2)C3)n1 (centres undefined)
4,801,O=C(O)c1cn(Cc2ccccc2F)c(=O)c2ccccc12
5,661,O=C(c1ccc(Nc2nc3ccccc3n3nnnc23)cc1)N1CCN(c2ccccn2)CC1
6,814,CC1(C)CC(=O)c2cn(-c3ccc(F)cc3)c(=O)c(C(=O)NC3CC3)c2C1
7,968,CCOc1ccccc1CNC(=O)C1CCCN(c2ccc(=O)n(-c3cccc(Cl)c3)n2)C1 (centres undefined)
8,754,COc1ccc(C(=O)NC2CCN(c3cc(-c4ccc(Cl)cc4)[nH]n3)C2)c(OC)c1 (centres undefined)
9,675,COc1ccccc1OCC(=O)NCC1CCOCC1
10,1220,CCn1c(C(=O)N2CCN(c3ccc(F)cc3)CC2)cc2c(-c3cccs3)nn(-c3ccccc3)c21
11,636,COCCCNC(=O)Cn1ccc2c(SCc3ccccc3)nccc21
12,702,COC(=O)c1ccc(C2NC(=O)c3[nH]nc(-c4ccc(OC)cc4)c32)cc1 (centres undefined)
13,765,CCOc1ccc(-c2ccc(=O)n(CCNC(=O)c3cc(C)oc3C)n2)cc1
14,1060,CCN1C(=O)c2cc(S(=O)(=O)NCc3ccc(F)cc3)ccc2Oc2cccnc21
15,561,O=C(NCc1nc2ccccc2[nH]1)c1ccc(OCC(=O)C2CC2)cc1

# Continued, compound first:
row,Structure (SMILES),RP-LC retention time [s]
1,CCCN1C(=O)COc2ccc(-c3noc(CNC(=O)Cc4ccccc4)n3)cc21,849
2,O=C(Nc1ccc(Cl)cc1)c1cn(CC(O)c2ccc3c(c2)OCO3)nn1 (centres undefined),841
3,Cc1nc(N)n(CC(=O)NCc2ccccc2)c(=O)c1C,611
4,NC(=O)c1ccsc1NC(=O)c1c(F)cccc1Cl,706
5,O=C(Nc1cccc2ccc(-n3ccnc3)nc12)c1ccccc1C(F)(F)F,638
6,CCN1CCCn2cc(S(=O)(=O)Nc3ccc(F)c(F)c3)cc2C1=O,768
7,CCN(CC)c1ncc2c(n1)CCC(C(=O)Nc1cccc(C(=O)OC)c1)C2 (centres undefined),660
8,COc1ncc(C(=O)NCc2ccc(Br)cc2)cn1,773
9,Cc1cccnc1NC(=O)c1c(O)c2cc(F)cc3c2n(c1=O)C(C)CC3 (centres undefined),848
10,CSc1cccc(NC(=O)C2CCN(c3nccc(C)n3)CC2)c1,700
11,O=C(NCc1ccc2c(c1)OCO2)c1nc(-c2ccnc(N3CCCCC3)c2)no1,691
12,CC(C)Oc1ccc(CNS(=O)(=O)c2cc(-c3nc(C(C)C)cs3)cs2)cc1,1210
13,O=S(=O)(Cc1ccc(-c2nc(-c3ccccc3)no2)o1)c1ccccc1,1010
14,COc1cc(OC)cc(-c2noc(-c3nn(-c4ccc(Cl)cc4)ccc3=O)n2)c1,973
15,c1csc(-c2csc(CN3CCNCC3)n2)c1,548
16,Cc1ccc(NC(=O)CN2C(=O)CCc3cc(S(=O)(=O)N4CCCCC4C)ccc32)c(C)c1 (centres undefined),945
17,CCNC(=O)N1[C@H]2CC[C@@H]1c1cnc(-c3ccccc3)nc1C2,735
18,CC(=O)N1CCc2c(sc(NC(=O)c3cc(=O)c4ccccc4o3)c2C#N)C1,670
19,CCn1cnc(S(=O)(=O)N2CCC(C(=O)N3CCN(c4cc(Cl)ccc4C)CC3)CC2)c1,916
20,CCN1CCN(CCCNS(=O)(=O)c2cccc(-c3nc(-c4ccc(C)cc4)no3)c2)CC1,690

row,Structure (SMILES),RP-LC retention time [s]
1,CCc1ccc(NS(=O)(=O)c2cc(-c3[nH]ncc3C(=O)N3CCCC3)oc2C)cc1,758
2,CCS(=O)(=O)c1nc2ccc(NS(C)(=O)=O)cc2s1,699
3,CCc1cc(C(=O)N2CCOCC2)nc2cc(-c3cccs3)nn12,838
4,Cc1ccccc1-c1noc(Cn2c(=O)n(-c3cccc(F)c3)c(=O)c3sccc32)n1,1030
5,CCOC(=O)c1nc(NCc2ccccc2OC)c2c(CC)noc2n1,943
6,Cc1cccc(NC(=O)N2CCN(c3nc4ccccc4nc3C(F)(F)F)CC2)c1C,1100
7,COc1nccnc1N1CCC(NC(=O)c2ccsc2)C1 (centres undefined),645
8,CCCNC(=O)C1CCN(c2nc3ccc(-c4ccsc4)nc3s2)CC1,851
9,Oc1ccccc1-n1c(-c2ccccc2)ccc1-c1ccccc1,1190
10,CCOC(=O)C1CCN(C(=O)c2csc(Nc3ccc(S(C)(=O)=O)cc3)n2)CC1,620
11,Cc1ccc(NC(=O)Nc2nccn(-c3ccc(Br)cc3)c2=O)cc1C,1100
12,COc1ccc(-c2cn3ccn(-c4ccc(OC)c(OC)c4)c(=O)c3n2)cc1,732
13,O=C1/C(=C/c2ccc([N+](=O)[O-])cc2)CCc2ccccc21,1160
14,CCc1noc(-c2ccc(SCC(=O)N3CCN(c4ccccn4)CC3)nc2)n1,619
15,CC(=O)c1cccc(Nc2c(C(=O)OC(C)C)cnc3nc(C)ccc23)c1,694
16,CCc1nnc(-c2ccc(S(=O)(=O)N3CCN(C(C)C)CC3)o2)o1,592
17,CCC(=O)N(C1CCOCC1)C1CCN(S(=O)(=O)c2ccc(Cl)cc2C)CC1,911
18,CC(=O)N1CCC(C2CCN(C(=O)C3CC=CCC3)C2)CC1 (centres undefined),691
19,Cc1occc1-c1nnc(SC(C)C(=O)N2CCCc3ccccc32)o1 (centres undefined),981
20,CCc1ccc(N2CC(c3noc(-c4cccs4)n3)CC2=O)cc1 (centres undefined),1010

row,Structure (SMILES),RP-LC retention time [s]
1,O=c1ccc(-c2ccc(F)cc2)nn1CCc1nc(-c2ccc(Br)cc2)no1,1110
2,CC(C)C(=O)N1CCCC(c2nc(CCNC(=O)C3CCC3)cs2)C1 (centres undefined),694
3,Cc1cc(C)n(Cc2nc(-c3ccc(NC(=O)C4CCCC4)cc3)oc2C)n1,931
4,CCn1nccc1C(=O)N1CCC2(CC1)N=C(c1ccc(C)cc1)NO2,734
5,CC(C)CNC(=O)CCc1ccc2nc(-c3ccccc3)[nH]c2c1,618
6,COc1ccc2c(c1)C1(CCN(S(=O)(=O)c3c(C)noc3C)C1)C(=O)N2C (centres undefined),877
7,O=C1CC(c2nc(-c3ccccc3F)no2)CN1c1ccc2c(c1)OCO2 (centres undefined),865
8,CC(C)n1cc(C2=CCN(S(=O)(=O)c3cccc(C#N)c3)CC2)c2cccnc21,995
9,O=C(NCCN1CCCC1)C1CCN(c2nc3cccnc3s2)CC1,561
10,COc1ccc(NC(=O)CN2CCc3[nH]c4c(C)c(Cl)ccc4c(=O)c3C2)c(OC)c1,656
11,Cc1noc2nc(CCC(=O)NCCCc3ccccc3)nc(N3CCOCC3)c12,760
12,CCNS(=O)(=O)c1cccnc1Nc1ccccc1F,948
13,COc1ccc(C(=O)Cn2nc3n(CC(C)C)c(=O)c4ccccc4n3c2=O)cc1OC,951
14,COc1ccc2c(C)c(CCC(=O)N3CCC(C(N)=O)CC3)c(=O)oc2c1,645
15,O=C(C1CCCN1)N1CCC(OCc2nc(-c3cccnc3)no2)CC1 (centres undefined),572
16,CC1CCN(CCNC(=O)c2nnc(-c3ccc(S(=O)(=O)N4CCOCC4)cc3)o2)CC1,629
17,Cc1nnc(C2CCCCCN2C(=O)CCc2c(C)nn(C)c2C)o1 (centres undefined),608
18,CCCc1nnc(NC(=O)CSc2ccc(NC(=O)C3CC3)nn2)s1,694
